Laboratory results published in patent US12655189B2, “DOTA binding chimeric antigen receptor for cellular therapy” (THE TRUSTEES OF THE UNIVERSITY OF PENNSYLVANIA, priority 2019, dated 2026).

Columns and labels:
[1] = system: CD20+ cells; assay: Lysis of CD20+ cells by DOTA CAR; format: cell-based; conditions: SKOV3 cells as antigen negative control
[2] = system: Ramos (CD20+/EGFR−) cells; assay: Luciferase lysis assay, Ramos; format: cell-based; conditions: 16 hours, 2.5:1 E:T, average of 1 DOTA per antibody
Protocol: Cetuximab and Rituximab were conjugated to Bn-DOTA to create targeting ligands with an average of 1 DOTA molecule per antibody, confirmed by MALDI TOF. MDA468 (CD20-/EGFR+) cells and Ramos (CD20+/EGFR−) cells expressing fLuc were incubated for 16 hours with DOTA CAR T cells at a 2.5:1 E:T ratio and targeting ligands at a range of concentrations. Each condition was run in triplicate. Luminescence was measured after co-culture and used to calculate lysis.

[3] = system: SKOV3 cells transduced with the DOTA CAR; assay: Cell uptake of radiolabeled probes, DOTA CAR transduced cells; format: cell-based
Protocol: FIG. 19 is a histogram illustrating [[…]]DOTA-Bn-NH2 and [^90Y]AABD uptake in SKOV3 cells transduced with the DOTA CAR.
FIG. 20 is a graph illustrating [[…]]Rituximab-Bn-DOTA-Y uptake in SKOV3 cells transduced with the DOTA CAR. The cells bind to [^125I]Rituximab-Bn-DOTA-Y rapidly, with maximum uptake at 60 min.
(§1) [^90Y]DOTA-Bn-NH2 and [^90Y]AABD (FIG. 14) were synthesized by incubating 0.6 mCi of Y-90 with DOTA-Bn-NH2 or AABD at 80° C. for 30 min. The radiochemical purity of [^90Y]DOTA-Bn-NH2 and [^90Y]AABD was >95% as analyzed by ITLC (instant thin-layer chromatography). Cell uptake studies were performed with SKOV3 cells transduced with the DOTA CAR, with untransduced SKOV3 cells as a control; excess Y-DOTA-Bn-NH2 (250 nM) was used as a blocking agent.
(§2) Rituxumab-Bn-DOTA-Y was radiolabeled with 1-125 using Pierce Pre-Coated Iodination Tubes. The radiochemical purity of [^125I]Rituximab-Bn-DOTA-Y was >99% based on ITLC (instant thin-layer chromatography). Cell uptake studies with [^125I]Rituximab-Bn-DOTA-Y were performed with SKOV3 cells that were transduced with the DOTA CAR, with untransduced SKOV3 cells as a control. […] This experiment confirmed that Y-DOTA labeled antibodies are capable of binding to cells that express the DOTA CAR, with minimal nonspecific binding.

[4] = system: untransduced SKOV3 cells; assay: Cell uptake of radiolabeled probes, untransduced control cells; format: cell-based
Protocol: as §1, §2

[5] = system: hC8.2.5 DOTA CAR T cells; assay: IFNγ secretion (ELISA) in response to immobilized DOTA or Y-DOTA; format: cell-based, human; conditions: immobilized ligand
Protocol: FIGS. 3A-3H illustrate Anti-DOTA Universal Immune Receptor binding and redirected killing. […] DOTA-NHS or Y-DOTA-Sarcosine-Biotin were incubated at various concentrations in a 96-well plate and allowed to passively adhere overnight at 4° C. Plates were washed 2× with PBS and 50,000 immune receptor expressing T cells were added to each well. Plates were incubated at 37° C. and 5% CO2 for 16 hours. Supernatants were harvested and analyzed for IFNγ secretion using a standard IFNγ ELISA kit. […] The average number of DOTA's per antibody was determined using the difference in mass between labeled and unlabeled antibody; in this example there are ˜9.3 DOTAs per antibody.

[6] = system: antigen positive cells; assay: Target-cell lysis with DOTA-conjugated targeting ligands: linker/metal tuning and blocking (FIGS. 3E, 6B, 9); format: cell-based; conditions: 6 nM DOTA-NHS blocking
Protocol: To investigate the ability of DOTA-linked antibodies to trigger effector function in CAR T cells, CAR T cells were incubated with varying amounts of the Her2-specific Herceptin-conjugated DOTA antibody for 16 hours (FIG. 3D). Following this incubation, the supernatant was collected and IFNγ production was measured.
Herceptin antibodies were conjugated to DOTA, various metal ions were chelated, and the ability of DOTA CAR T cells to kill their targets was evaluated.

For “Rituximab-Bn-DOTA: Rituximab conjugated to Bn-DOTA”, the “lysis of CD20+ cells” value [1] was “specifically lysed” and the “lysis of Ramos cells” value [2] was “able to specifically lyse their respective target cell lines”.
In the case of “Rituximab-Bn-DOTA-Y: Rituximab-Bn-DOTA with chelated yttrium”, the “lysis of CD20+ cells” value [1] is reported as “capable of lysing CD20+ cells”.
With “[^125I]Rituximab-Bn-DOTA-Y: Rituximab-Bn-DOTA-Y radiolabeled with I-125” the “time of maximum uptake” value [3] was 60 min, the cell uptake ([3]; at 60 min) was 65 % input/10^6 cells and the “cell uptake in untransduced cells” value [4] was “minimal to no uptake”.
O=C(O)CN1CCN(CC(=O)O)CCN(CC(=O)ON2C(=O)CCC2=O)CCN(CC(=O)O)CC1 [DOTA-NHS] was tested, and the “concentration at which the IFNγ effect was saturating” value [5] was 100 µM, the “IFNγ production by hC8.2.5 DOTA CAR T cells” value ([5]; 16 hours) was “low levels of IFNγ” and the “effect of free monomeric DOTA on lytic function of Herceptin-NHS-DOTA-Y-CAR T cells” value [6] was “blockade of lytic function”.
